# Tested on: red blood cell
# Assay: red blood cell (RBC) lysis assay
# Text: The degradation products were obtained by dissolving polyacetal 22 in phosphate buffered saline (PBS), adjusting the pH to 1–2 by the addition of HCl to allow the polyacetal to degrade, then adding a small amount of NaOH to readjust the pH to 7.4.
substance,measurement,value
Dextran,red blood cell (RBC) lysis,did not display RBC lysis

# Source: patent US7220414B2, “Degradable polyacetal polymers” (A.P. Pharma, Inc., priority 2000, dated 2007)
